Measurements reported in patent US7550438B2, “Methods for production of growth-promoting proteins and peptides for kidney epithelial cells” (The University of Chicago, priority 1997, dated 2009).

Tests used:
[1] = system: monkey kidney epithelial cells of the BSC-1 line; experiment: Growth-promoting (mitogenic) activity: number of cells in BSC-1 cultures counted four days after addition; type: cell-based, African green monkey
Protocol: For the assay, cells were detached from the dish with a solution of trypsin and an aliquot was counted in a hemocytometer.
Nontransformed monkey kidney epithelial cells of the BSC-1 line were grown to confluence in Dulbecco's modified Eagle's medium containing 1% calf serum and […] in 55-mm culture dishes at 38° C. in a CO2 incubator. When cells achieved a density of about 10^6 per dish, the spent medium was removed and replaced with fresh medium containing 0.5% calf serum and the 14-amino acid peptide (0.5 μg/ml). Additions of each of the mitogenic signals at maximal concentration were made to the culture medium. Four days later the number of cells in each culture was counted in a hemocytometer. Values obtained were the mean of 3 separate cultures.
Nontransformed monkey kidney epithelial cells of the BSC-1 line were grown to confluence in Dulbecco's modified Eagle's medium containing 1% calf serum and 1.6 μM biotin at 38° C. in a CO2 incubator. When cells achieved a density of about 10^6 per dish, the spent medium was removed and replaced with fresh medium containing 0.5% calf serum and different amounts of the two peptides. Four days later the number of cells in each culture was counted. Each value is the mean of 3 separate cultures.
To delineate the sequence of the smallest peptide that could stimulate renal cell growth, synthetic peptides of different lengths were prepared (see below), and purified by reversed-phase HPLC on a C18 column.
The peptide of interest was then purified on a reversed-phase C18 column HPLC as described herein using a gradient of 1-80% acetonitrile in 0.1% trifluroacetic acid (TFA). The purified peptide was then lyophilized to remove the acetonitrile and TFA and the lyophilized powder was weighed, dissolved in buffer and added to the culture medium to measure its effect on the growth of monkey kidney epithelial cells as described herein. […] A value termed the K1/2, was used.

[2] = system: rats with mercuric chloride-induced acute renal failure; experiment: Mercuric chloride-induced acute renal failure in rats: survival and renal function; type: in vivo, rat
Description: Nephrotoxic and ischemic acute renal failure (ARF) induced experimentally in rats have long been used to model this syndrome in humans. […] Male rats weighed 200-225 gm at the start of the experiment. This dose was used because preliminary experiments indicated it results in survival of 25-50% of the animals 7 days later. […] An increase in serum creatinine concentration signals a decline in renal function because the injured kidney is unable to excrete endogenous creatinine in the urine so it accumulates in the blood.
The synthetic peptide […] (14-Ser) (SEQ ID NO: 15) (dissolved in sterile 0.01% bovine serum albumin in phosphate-buffered saline) was injected subcutaneously into rats to determine its effect on survival, recovery of renal fucntion, and stimulation of DNA synthesis. Multiple different peptides were studied including 14-Ser, […] (14-mer) (SEQ ID NO: 39), […] (16-mer) (SEQ ID NO: 4) […] (11-mer) (SEQ ID NO: 6), and […] (11-mer) (SEQ ID NO: 41). Different concentrations and times of administration were tested and compared.
Acute tubular necrosis was induced in 44 rats by the subcutaneous (s.c.) injection of mercuric chloride, and a single dose of 14-ser was administered s.c. 1 hour afterwards. Different amounts of the peptide were given to assesses its capacity to affect the outcome. Survival 7 days later was about twice as high in animals given 100-150 μg of peptide (63%) than in rats given 0-75 μg peptide (29%).
To determine the effect of the peptide on survival and recovery of renal function, acute tubular necrosis was induced in 59 rats; 29 received 14-Ser (100 μg/rat) and 30 received an equal volume of the vehicle s.c. 1 hour after administration of mercuric chloride. Enhanced survival (top panel) and renal functional recovery (bottom panel) of rats give a WGF-derived peptide after mercuric chloride-induced acute tubular necrosis are shown in FIG. 2A and FIG. 2B. Mercuric chloride was injected subcutaneously into each of the 59 rats, and 1 hour later 100 μg of WGF peptide (14-Ser) (n=29 rats) or the vehicle […] was given. Survival was greater in rats given the peptide than in animals receiving the vehicle as early as day 3 after administration of mercuric chloride. Blood was obtained from the tail vein on the days indicated, and serum creatinine concentration was measured. […] On days 2, 3 and 4, the lower creatinine concentration in peptide-treated rats indicates accelerated recovery of kidney function.
Experimental ARF was induced in rats by subcutaneous injection of mercuric chloride. The synthetic peptide […] […] In one experiment a total of 17 rats were injected with a dose of mercuric chloride shown to induce ARF. The different amounts of the peptide (known to stimulate growth of kidney cells in culture) were injected into the animals to assess capacity to improve the outcome. […] In contrast, two of three rats given 100 micrograms of peptide were alive, as were five of six given 200 micrograms. In summary, none of eight rats (0%) given up to 50 micrograms of peptide survived, whereas seven of nine (78%) given 100-200 micrograms did. Thus, the 11-mer WGF peptide improves survival in nephrotoxic ARF.
[…] Four days later, 63% of rats given the 14-Ser peptide were alive compared to 25% of animals receiving the vehicle (chi squared, P-0.0499); 50% of rats receiving EGF were alive (chi squared, P=N.S.). On day 5, 50% of rats given EGF were alive, compared to 12.5% of animals given the vehicle (chi squared, P=0.0436). […] These observations indicate that the 14-Ser peptide and EGF given after renal injury are similar in their ability to improve survival from the ARF syndrome.

BSC-1 cells [3] = experiment: Time of contact with cells required to commit them to accelerated growth (washout, count at four days); type: cell-based, African green monkey; settings: peptide then washed off, cells counted four days later
Protocol: Confluent monolayers of BSC-1 cells are prepared as herein and exposed to the 14-Ser peptide (0.5 μg/ml) for different amounts of time (0 to 30 minutes). At the end of the defined exposure period, culture medium containing the mitogen was aspirated, the monolayer was rinsed to remove non-adherent peptide, and fresh medium was added. Four days later the number of cells in the culture was counted.
In these experiments a solution containing the peptide of interest was added to the cell monolayer; culture medium was then aspirated at a specified time thereafter. Then fresh medium without the peptide was added and the number of cells was counted four days later.

BSC-1 cells [4] = experiment: Appearance or release of WGF growth-promoting activity from BSC-1 cells (scrape wounding, heparinase); type: cell-based, African green monkey; settings: for appearance of growth-promoting activity after wounding: cells preincubated 10 minutes with the protease inhibitor
Protocol: None of these agents inhibited cell growth when added to cells of nonwounded cultures. When added to the medium after the appearance of WGF mitogenic activity, neither PMSF nor aprotinin appeared to inhibit the increment in cell proliferation.
Confluent monolayer cultures were mechanically scraped using a 200 μL pipet tip (Continental Laboratory Products, San Diego, Calif.). […] (This process of scraping the cells has been termed “wounding” and has been used for many years as a model system to study repair of corneal abrasions of the eye. In effect, pressure is applied to cells sufficient to disrupt intercellular adhesion). To determine whether kidney epithelial cells released an autocrine growth factor into the medium after wounding, conditioned culture medium was removed from the culture dish after scrape-wounding a monolayer of BSC-1 cells. An aliquot was assayed for any growth-promoting activity on a nonwounded “detector” culture (1.2×10^6 cells per […]).
Treatment of a confluent monolayer of BSC-1 cells with the enzyme heparinase I (Sigma), but not heparinase III (Sigma), releases WGF mitogenic activity from cells into the culture media. However, this seems to deplete WGF, at least temporarily. When cells are first treated with heparinase I, rinsed, the media aspirated, and the monolayer is then scrape-wounded, no growth-promoting activity is detected in the conditioned media.

epidermal growth factor [EGF, reference compound]
concentration equivalent in mitogenic potency to partially-purified WGF [1]: 0.015 µg/mL | stimulation of growth (increase in cell number compared to control at four days) ([1]; agent alone at maximal mitogenic concentration (14-Ser 0.5 μg/ml; EGF, IGF-I 50 ng/ml; acidic FGF 100 pg/ml; basic FGF 1,000 pg/ml; vasopressin 75 pg/ml; K 10.4 mM; Na 180 mM)): 31% | combined mitogenic effect with WGF (additivity) ([1]; maximal concentrations, 11-mer with wound conditioned buffer): additive | stimulation of growth in the presence of the 14-Ser peptide ([1]; mitogenic signal at maximal concentration plus 14-Ser peptide 0.5 μg/ml, four days): 61% | survival on day 6 ([2]; 14-Ser 100 μg 1 hour after, EGF 20 μg 2 hours after mercuric chloride, vehicle 12%): 37.5% | survival four days later ([2]; 14-Ser 100 μg s.c. 1 hour after, EGF 20 μg s.c. 2 hours after mercuric chloride 2.25 mg/kg, vehicle 25%): 50% | survival on day 5 ([2]; EGF 20 μg s.c. 2 hours after mercuric chloride, vehicle 12.5%): 50% | survival on day 4 ([2]; given 24 hours before mercuric chloride (EGF 20 μg, s.c.)): 25% | exposure time sufficient for maximal growth stimulation (commitment time) (BSC-1 cells [3]): 4 min

aprotinin
appearance of growth-promoting activity after wounding (BSC-1 cells [4]): prevented

O=S(=O)(F)Cc1ccccc1 [PMSF, phenylmethylsulfonyl-fluoride]
appearance of growth-promoting activity after wounding (BSC-1 cells [4]): prevented

Cc1ccc(S(=O)(=O)N[C@@H](CCCCN)C(=O)CCl)cc1.Cl [TLCK, L-1-chloro-3-(4-tosylamido)-7-amino-2-heptanone-hydrochloride]
appearance of growth-promoting activity after wounding (BSC-1 cells [4]): prevented

B1: α2-macroglobulin (protein, UniProt P01023 24-1474, looked up)
Alpha-2-macroglobulin: SVSGKPQYMVLVPSLLHTETTEKGCVLLSYLNETVTVSASLESVRGNRSLFTDLEAENDVLHCVAFAVPKSSSNEEVMFLTVQVKGPTQEFKKRTTVMVKNEDSLVFVQTDKSIYKPGQTVKFRVVSMDENFHPLNELIPLVYIQDPKGNRIAQWQSFQLEGGLKQFSFPLSSEPFQGSYKVVVQKKSGGRTEHPFTVEEFVLPKFEVQVTVPKIITILEEEMNVSVCGLYTYGKPVPGHVTVSICRKYSDASDCHGEDSQAFCEKFSGQLNSHGCFYQQVKTKVFQLKRKEYEMKLHTEAQIQEEGTVVELTGRQSSEITRTITKLSFVKVDSHFRQGIPFFGQVRLVDGKGVPIPNKVIFIRGNEANYYSNATTDEHGLVQFSINTTNVMGTSLTVRVNYKDRSPCYGYQWVSEEHEEAHHTAYLVFSPSKSFVHLEPMSHELPCGHTQTVQAHYILNGGTLLGLKKLSFYYLIMAKGGIVRTGTHGLLVKQEDMKGHFSISIPVKSDIAPVARLLIYAVLPTGDVIGDSAKYDVENCLANKVDLSFSPSQSLPASHAHLRVTAAPQSVCALRAVDQSVLLMKPDAELSASSVYNLLPEKDLTGFPGPLNDQDNEDCINRHNVYINGITYTPVSSTNEKDMYSFLEDMGLKAFTNSKIRKPKMCPQLQQYEMHGPEGLRVGFYESDVMGRGHARLVHVEEPHTETVRKYFPETWIWDLVVVNSAGVAEVGVTVPDTITEWKAGAFCLSEDAGLGISSTASLRAFQPFFVELTMPYSVIRGEAFTLKATVLNYLPKCIRVSVQLEASPAFLAVPVEKEQAPHCICANGRQTVSWAVTPKSLGNVNFTVSAEALESQELCGTEVPSVPEHGRKDTVIKPLLVEPEGLEKETTFNSLLCPSGGEVSEELSLKLPPNVVEESARASVSVLGDILGSAMQNTQNLLQMPYGCGEQNMVLFAPNIYVLDYLNETQQLTPEIKSKAIGYLNTGYQRQLNYKHYDGSYSTFGERYGRNQGNTWLTAFVLKTFAQARAYIFIDEAHITQALIWLSQRQKDNGCFRSSGSLLNNAIKGGVEDEVTLSAYITIALLEIPLTVTHPVVRNALFCLESAWKTAQEGDHGSHVYTKALLAYAFALAGNQDKRKEVLKSLNEEAVKKDNSVHWERPQKPKAPVGHFYEPQAPSAEVEMTSYVLLAYLTAQPAPTSEDLTSATNIVKWITKQQNAQGGFSSTQDTVVALHALSKYGAATFTRTGKAAQVTIQSSGTFSSKFQVDNNNRLLLQQVSLPELPGEYSMKVTGEGCVYLQTSLKYNILPEKEEFPFALGVQTLPQTCDEPKAHTSFQISLSVSYTGSRSASNMAIVDVKMVSGFIPLKPTVKMLERSNHVSRTEVSSNHVLIYLDKVSNQTLSLFFTVLQDVPVRDLKPAIVKVYDYYETDEFAIAEYNAPCSKDLGNA
appearance of growth-promoting activity after wounding (BSC-1 cells [4]): prevented

B2: heparinase I: enzyme heparinase I (Sigma) (protein, UniProt Q05819 22-384, looked up)
Heparin lyase I: QQKKSGNIPYRVNVQADSAKQKAIIDNKWVAVGINKPYALQYDDKLRFNGKPSYRFELKAEDNSLEGYAAGETKGRTELSYSYATTNDFKKFPPSVYQNAQKLKTVYHYGKGICEQGSSRSYTFSVYIPSSFPDNATTIFAQWHGAPSRTLVATPEGEIKTLSIEEFLALYDRMIFKKNIAHDKVEKKDKDGKITYVAGKPNGWKVEQGGYPTLAFGFSKGYFYIKANSDRQWLTDKADRNNANPENSEVMKPYSSEYKTSTIAYKMPFAQFPKDCWITFDVAIDWTKYGKEANTILKPGKLDVMMTYTKNKKPQKAHIVNQQEILIGRNDDDGYYFKFGIYRVGNSTVPVTYNLSGYSETAR
release of WGF mitogenic activity from cells into the culture media (BSC-1 cells [4]; confluent monolayer treated with the enzyme): releases
